13 compounds from patent US12122763B2, “Substituted piperidines for androgen receptor degradation” (UBIX THERAPEUTICS, INC., priority 2020, dated 2024) can be followed below.

Assay [1] concerns the target T877A AR mutant (Homo sapiens, UniProt P10275, T878A). Put plainly: Degradation of AR mutant T877A. The assay is classed as cell-based. The following applies: at a concentration of 100 nM. The text has this: On the other hand, the compounds of the present invention have excellent degradation activity against AR mutants (T877A, M896V, F876L, H874Y, L702H, W741C, etc.). Since resistance to existing anti-androgen receptor drugs can be caused by AR mutation, the excellent AR mutant-degrading activity of the compounds of the present invention can help overcome resistance to existing drugs.

Assay [2] deals with T1, Androgen Receptor (AR) protein (Homo sapiens, UniProt P10275, T878A).
T1 construct: endogenous in cells; host or cells: LNCaP
Put plainly: Androgen Receptor (AR) protein degradation assay in LNCaP cells, western blotting. The assay is classed as cell-based. The following applies: 20 h; for inhibition at 0.01 µM: 0.01 μM compound; for inhibition at 0.1 µM: 0.1 μM compound; for inhibition at 1 µM: 1 μM compound. In outline: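 AR protein level was detected by western blot (ECL) against GAPDH or β-actin controls, with 8 μg lysate protein loaded per lane after BCA quantification. Lysates came from LNCaP cells exposed to test compound for 20 h, following 3 days of growth in RPMI/10% FBS.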

T1 sequence (P10275 whole entry T878A): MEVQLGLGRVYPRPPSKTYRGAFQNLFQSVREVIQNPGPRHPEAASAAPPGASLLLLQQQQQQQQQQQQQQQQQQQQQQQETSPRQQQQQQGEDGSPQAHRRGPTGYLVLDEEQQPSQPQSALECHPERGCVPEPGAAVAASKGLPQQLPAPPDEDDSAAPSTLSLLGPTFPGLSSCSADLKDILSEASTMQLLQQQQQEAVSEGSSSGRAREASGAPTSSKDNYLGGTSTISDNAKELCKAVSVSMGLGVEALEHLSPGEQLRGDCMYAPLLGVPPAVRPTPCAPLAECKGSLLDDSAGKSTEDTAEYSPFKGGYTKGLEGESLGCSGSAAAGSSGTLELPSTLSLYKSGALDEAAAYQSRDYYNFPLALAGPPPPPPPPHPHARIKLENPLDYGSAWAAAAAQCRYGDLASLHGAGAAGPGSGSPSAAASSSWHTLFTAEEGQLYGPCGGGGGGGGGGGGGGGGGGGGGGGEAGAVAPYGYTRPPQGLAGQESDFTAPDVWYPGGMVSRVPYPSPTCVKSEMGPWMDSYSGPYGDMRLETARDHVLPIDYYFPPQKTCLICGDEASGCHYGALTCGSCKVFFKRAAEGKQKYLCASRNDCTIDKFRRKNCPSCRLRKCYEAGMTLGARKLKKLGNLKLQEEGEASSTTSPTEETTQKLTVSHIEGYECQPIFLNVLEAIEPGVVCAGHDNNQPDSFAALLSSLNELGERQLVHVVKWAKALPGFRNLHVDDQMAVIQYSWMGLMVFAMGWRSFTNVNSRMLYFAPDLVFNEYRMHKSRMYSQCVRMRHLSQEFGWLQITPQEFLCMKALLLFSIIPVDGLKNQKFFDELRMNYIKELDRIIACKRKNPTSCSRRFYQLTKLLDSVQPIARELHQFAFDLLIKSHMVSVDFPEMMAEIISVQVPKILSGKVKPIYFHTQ
T1 sequence (Q96SW2 whole entry partner): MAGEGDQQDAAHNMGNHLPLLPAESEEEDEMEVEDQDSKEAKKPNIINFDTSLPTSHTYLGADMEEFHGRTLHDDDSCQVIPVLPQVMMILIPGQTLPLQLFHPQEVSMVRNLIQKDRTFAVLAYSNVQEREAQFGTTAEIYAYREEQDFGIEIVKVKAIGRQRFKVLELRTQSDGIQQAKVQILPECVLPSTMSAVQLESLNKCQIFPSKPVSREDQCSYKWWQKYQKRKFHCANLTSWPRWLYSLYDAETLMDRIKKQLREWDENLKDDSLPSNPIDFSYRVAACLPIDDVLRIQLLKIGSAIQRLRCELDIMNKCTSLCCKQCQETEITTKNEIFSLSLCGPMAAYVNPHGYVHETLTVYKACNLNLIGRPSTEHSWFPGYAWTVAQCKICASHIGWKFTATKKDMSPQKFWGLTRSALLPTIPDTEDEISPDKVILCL
Sequence of T877A AR mutant (P10275 whole entry T878A): as the sequence (P10275 whole entry T878A) above
Sequence of T877A AR mutant (Q96SW2 whole entry partner): as the sequence (Q96SW2 whole entry partner) above

Turning to `N#Cc1ccc(N2CCC(C(=O)Nc3ccc(N4CCC(CN5CC6(CCN(c7ccc8c(c7)C(=O)N(C7CCC(=O)NC7=O)C8=O)CC6)C5)CC4)cn3)CC2)cc1C(F)(F)F` (stereo not drawn) [Example 49, 1-(4-cyano-3-(trifluoromethyl)phenyl)-N-(5-(4-((7-(2-(2,6-dioxopiperidin-3-yl)-1,3-dioxoisoindolin-5-yl)-2,7-diazaspiro[3.5]nonan-2-yl)methyl)piperidin-1-yl)pyridin-2-yl)piperidine-4-carboxamide], the “degradation activity for the T877A AR mutant” value in assay [1] was found to be 46%. Further, in assay [2], the inhibition at 0.01 µM came out at 68%, the inhibition at 0.1 µM worked out at 98% and the inhibition at 1 µM worked out at 99%. For the same compound, in assay [2] (10 μM compound), the inhibition at 10 µM worked out at 99%.
For `N#Cc1ccc(N2CCC(C(=O)Nc3ccc(OCC4CCN(CC5CCN(c6cc7c(cc6F)C(=O)N(C6CCC(=O)NC6=O)C7=O)CC5)CC4)cn3)CC2)cc1C(F)(F)F` (stereo not drawn) [Example 181, 1-(4-cyano-3-(trifluoromethyl)phenyl)-N-(5-((1-((1-(2-(2,6-dioxopiperidin-3-yl)-6-fluoro-1,3-dioxoisoindolin-5-yl)piperidin-4-yl)methyl)piperidin-4-yl)methoxy)pyridin-2-yl)piperidine-4-carboxamide], in assay [2], the inhibition at 0.01 µM turned out to be 75%, the inhibition at 0.1 µM was found to be 93% and the inhibition at 1 µM was found to be 97%.
Regarding `N#Cc1ccc(N2CCC(C(=O)Nc3ccc(CC4CCN(CC5CCN(c6cc7c(cc6F)C(=O)N(C6CCC(=O)NC6=O)C7=O)CC5)CC4)cn3)CC2)cc1C(F)(F)F` (stereo not drawn) [Example 182, 1-(4-cyano-3-(trifluoromethyl)phenyl)-N-(5-((1-((1-(2-(2,6-dioxopiperidin-3-yl)-6-fluoro-1,3-dioxoisoindolin-5-yl)piperidin-4-yl)methyl)piperidin-4-yl)methyl)pyridin-2-yl)piperidine-4-carboxamide], in assay [2], the inhibition at 0.01 µM was found to be 72%, the inhibition at 0.1 µM came to 96% and the inhibition at 1 µM is 98%.
The like results for `N#Cc1ccc(N2CCC(C(=O)Nc3ccc(OCC4CCN(CC5CN(c6ccc7c(c6)C(=O)N(C6CCC(=O)NC6=O)C7=O)C5)CC4)cn3)CC2)cc1C(F)(F)F` (stereo not drawn) [Example 183, 1-(4-cyano-3-(trifluoromethyl)phenyl)-N-(5-((1-((1-(2-(2,6-dioxopiperidin-3-yl)-1,3-dioxoisoindolin-5-yl)azetidin-3-yl)methyl)piperidin-4-yl)methoxy)pyridin-2-yl)piperidine-4-carboxamide] were, in that order, 72%, 87% and 93%.
Take `CC1(CN2CCC(COc3ccc(NC(=O)C4CCN(c5ccc(C#N)c(C(F)(F)F)c5)CC4)nc3)CC2)CN(c2ccc3c(c2)C(=O)N(C2CCC(=O)NC2=O)C3=O)C1` (stereo not drawn) [Example 184, 1-(4-cyano-3-(trifluoromethyl)phenyl)-N-(5-((1-((1-(2-(2,6-dioxopiperidin-3-yl)-1,3-dioxoisoindolin-5-yl)-3-methylazetidin-3-yl)methyl)piperidin-4-yl)methoxy)pyridin-2-yl)piperidine-4-carboxamide]: in assay [2], the inhibition at 0.01 µM was determined as 72%, the inhibition at 0.1 µM was 91% and the inhibition at 1 µM is 97%.
Regarding `N#Cc1ccc(N2CCC(C(=O)Nc3ccc(OCC4CN(CC5CCN(c6ccc7c(c6)C(=O)N(C6CCC(=O)NC6=O)C7=O)CC5)C4)cn3)CC2)cc1C(F)(F)F` (stereo not drawn) [Example 185, 1-(4-cyano-3-(trifluoromethyl)phenyl)-N-(5-((1-((1-(2-(2,6-dioxopiperidin-3-yl)-1,3-dioxoisoindolin-5-yl)piperidin-4-yl)methyl)azetidin-3-yl)methoxy)pyridin-2-yl)piperidine-4-carboxamide], in assay [2], the inhibition at 0.01 µM was found to be 85%, the inhibition at 0.1 µM was determined as 97% and the inhibition at 1 µM is 99%.
The like results for `CC1(COc2ccc(NC(=O)C3CCN(c4ccc(C#N)c(C(F)(F)F)c4)CC3)nc2)CN(CC2CCN(c3ccc4c(c3)C(=O)N(C3CCC(=O)NC3=O)C4=O)CC2)C1` (stereo not drawn) [Example 186, 1-(4-cyano-3-(trifluoromethyl)phenyl)-N-(5-((1-((1-(2-(2,6-dioxopiperidin-3-yl)-1,3-dioxoisoindolin-5-yl)piperidin-4-yl)methyl)-3-methylazetidin-3-yl)methoxy)pyridin-2-yl)piperidine-4-carboxamide] were, in that order, 66%, 94% and 96%.
In the case of `N#Cc1ccc(N2CCC(C(=O)Nc3ccc(OC4CCN(CC5CCN(c6ccc7c(c6)C(=O)N(C6CCC(=O)NC6=O)C7=O)CC5)CC4)nn3)CC2)cc1C(F)(F)F` (stereo not drawn) [Example 187, 1-(4-cyano-3-(trifluoromethyl)phenyl)-N-(6-((1-((1-(2-(2,6-dioxopiperidin-3-yl)-1,3-dioxoisoindolin-5-yl)piperidin-4-yl)methyl)piperidin-4-yl)oxy)pyridazin-3-yl)piperidine-4-carboxamide], in assay [2], the inhibition at 0.01 µM turned out to be 63% and the inhibition at 0.1 µM amounted to 90%.
For `N#Cc1ccc(N2CCC(C(=O)Nc3ccc(CN4CCC(CN5CCN(c6cc7c(cc6F)C(=O)N(C6CCC(=O)NC6=O)C7=O)CC5)CC4)cn3)CC2)cc1C(F)(F)F` (stereo not drawn) [Example 188, 1-(4-cyano-3-(trifluoromethyl)phenyl)-N-(5-((4-((4-(2-(2,6-dioxopiperidin-3-yl)-6-fluoro-1,3-dioxoisoindolin-5-yl)piperazin-1-yl)methyl)piperidin-1-yl)methyl)pyridin-2-yl)piperidine-4-carboxamide], in that order: 1% and 45%.
The like results for `N#Cc1ccc(N2CCC(C(=O)Nc3ccc(CCN4CCC(CN5CCN(c6cc7c(cc6F)C(=O)N(C6CCC(=O)NC6=O)C7=O)CC5)CC4)cn3)CC2)cc1C(F)(F)F` (stereo not drawn) [Example 189, 1-(4-cyano-3-(trifluoromethyl)phenyl)-N-(5-(2-(4-((4-(2-(2,6-dioxopiperidin-3-yl)-6-fluoro-1,3-dioxoisoindolin-5-yl)piperazin-1-yl)methyl)piperidin-1-yl)ethyl)pyridin-2-yl)piperidine-4-carboxamide] were, in that order, 8% and 79%.
For `N#Cc1ccc(N2CCC(C(=O)Nc3ccc(N4CC(CN5CCC(CN6CCN(c7ccc8c(c7)C(=O)N(C7CCC(=O)NC7=O)C8=O)CC6)CC5)C4)cn3)CC2)cc1C(F)(F)F` (stereo not drawn) [Example 190, 1-(4-cyano-3-(trifluoromethyl)phenyl)-N-(5-(3-((4-((4-(2-(2,6-dioxopiperidin-3-yl)-1,3-dioxoisoindolin-5-yl)piperazin-1-yl)methyl)piperidin-1-yl)methyl)azetidin-1-yl)pyridin-2-yl)piperidine-4-carboxamide], in that order: -11% and 61%.
As to `N#Cc1ccc(N2CCC(C(=O)Nc3ccc(N4CC(CN5CCC(CN6CCN(c7cc8c(cc7F)C(=O)N(C7CCC(=O)NC7=O)C8=O)CC6)CC5)C4)cn3)CC2)cc1C(F)(F)F` (stereo not drawn) [Example 191, 1-(4-cyano-3-(trifluoromethyl)phenyl)-N-(5-(3-((4-((4-(2-(2,6-dioxopiperidin-3-yl)-6-fluoro-1,3-dioxoisoindolin-5-yl)piperazin-1-yl)methyl)piperidin-1-yl)methyl)azetidin-1-yl)pyridin-2-yl)piperidine-4-carboxamide], in assay [2], the inhibition at 0.01 µM was 3% and the inhibition at 0.1 µM came to 84%.
Regarding `N#Cc1ccc(N2CCC(C(=O)Nc3ccc(N4CCC(CCN5CCN(c6cc7c(cc6F)C(=O)N(C6CCC(=O)NC6=O)C7=O)CC5)CC4)cn3)CC2)cc1C(F)(F)F` (stereo not drawn) [Example 192, 1-(4-cyano-3-(trifluoromethyl)phenyl)-N-(5-(4-(2-(4-(2-(2,6-dioxopiperidin-3-yl)-6-fluoro-1,3-dioxoisoindolin-5-yl)piperazin-1-yl)ethyl)piperidin-1-yl)pyridin-2-yl)piperidine-4-carboxamide], in assay [2], the inhibition at 0.01 µM is -11%, the inhibition at 0.1 µM came out at 15% and the inhibition at 1 µM is 67%.

The term inhibition denotes the change of the read-out against control, counted positive when it falls.
